According to patent US20230381142A1, “ANTILEISHMANIAL COMPOUNDS, COMPOSITIONS AND USE THEREOF” (TRUSTEES OF BOSTON UNIVERSITY, priority 2022, published 2023):
In brackets after ≈: the same amount, converted by molar mass.

Assays:
[1] = UCSD infection assay, host cell cytotoxicity (CC50); assay type: cell-based; settings: mouse, B10R host cells infected with L. donovani; host B10R cells
Procedure: (§1) Assay Conditions D: B10R cells (CVCL_0155) were seeded at 300 cells/well, and L. donovani WT promastigotes in stationary phase (7th day after passage) were added at 6,000 parasites/well (ratio of 20 parasites/cell). Both cells and parasites were seeded in DMEM High-Glucose medium (Gibco, cat. no. 11995065) containing 5% Fetal Bovine Serum (Sigma-Aldrich, cat. no. F2442) and 1% Penicillin-Streptomycin (Gibco, cat. no. 15140122). Cells and parasites were incubated in the presence of the compounds for 72 h at 37° C. and 5% C02. Plates were then fixed with 4% formaldehyde solution for at least 1 h, then washed with 1×PBS and stained with 5 μg/mL DAPI. Plates were read using an ImageXpress microscope (Molecular Devices) and analyzed by MetaXpress software (Molecular Devices) using a custom module optimized for this assay. […] Compounds were tested in a 10-point 2-fold serial dilution in 3 technical replicates, and 2 biological replicates. After 72 h, plates were fixed and stained with DAPI as described above. Images were acquired on an ImageXpress microscope, and analyzed using the MetaXpress custom module.
as §1, with “Compounds were obtained as 0.2 μmoles of dried film for primary single point screening. Each compound was diluted in DMSO to 10 μM final testing concentration. These compounds were tested in 2 biological replicates. The compounds were pre-spotted onto 384-well assay plates in single concentration.” for “Assay Conditions D:”, “CO2.” for “C02.”, “module. The DRCs were plotted, half-effective concentration (EC50) and half-cytotoxic concentration (CC50) were calculated using GraphPad Prism Software, version 6.05 (GraphPad Software, San Diego, CA).” for “module.”

[2] = tested on: L. donovani intracellular amastigotes in B10R cells; assay: UCSD L. donovani infection assay (Assay Conditions D); assay type: cell-based; settings: for IC50: Leishmania donovani
Outline: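 Compounds, either single-point at 10 μM or 10-point 2-fold series (3 technical, 2 biological replicates), were incubated 72 h at 37° C. with B10R host cells co-seeded with day-7 stationary L. donovani promastigotes (20:1). DAPI-stained nuclei imaging yielded intracellular parasite EC50 and host-cell CC50.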

[3] = tested on: L. donovani intracellular amastigotes infecting THP-1 macrophages; assay: GSK intramacrophage L. donovani assay (LD AMMAC, inMac; Assay Conditions C); assay type: cell-based; settings: Leishmania donovani; for IC50: THP-1; for EC50: growth inhibition of L. donovani intracellular amastigotes infecting THP-1 macrophages, read-out: LD AMMAC EC50
Outline: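 EC50 values come from counting amastigotes per infected THP-1 macrophage (AMMAC). Parallel read-outs give percentage of infected cells per well (INFCELL) and a macrophage-number toxicity EC50 (MAC).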

[4] = Artificial membrane permeability (AMP); assay type: in vitro ADME; settings: PAMPA, pH 7.4
Outline: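 Passive permeation through 1.8% phosphatidylcholine in 1% decane membrane, 50 mM phosphate buffer pH 7.4 on donor and receiver sides. After 45 min pre-shaking, compounds incubated 3 h at room temperature with shaking, in duplicate; donor and receiver solutions quantified by LC/MS.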

[5] = Kinetic aqueous solubility by CLND; assay type: physicochemical; settings: kinetic from dmso stock, high-throughput CLND
Procedure: Solubility of compounds using ChemiLuminescent Nitrogen Detection (CLND) was measured as described. Solubility of compounds using Charged Aerosol Detection (CAD) was measured as described. Solubility of solid compounds in Fasted Simulated Intestinal Fluid (FaSSIF) was measured as described.

[6] = Property forecast index (PFI = ChromLogD7.4 + aromatic rings); assay type: physicochemical
[7] = tested on: host THP-1 macrophages; assay: GSK inMac assay, host cell toxicity readout (LD MAC); assay type: cell-based, human; settings: Homo sapiens, THP-1, cytotoxicity against host THP-1 macrophages
Outline: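 MAC EC50 reflects THP-1 host cell counts, measured within GSK's inMac L. donovani infection assay that also scores intracellular amastigotes and infected-cell percentage.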

[8] = biological target: human serum albumin (Homo sapiens, UniProt P02768); assay: Human serum albumin (HSA) binding, chromatographic; assay type: in vitro ADME
human serum albumin, sequence (P02768 25-609): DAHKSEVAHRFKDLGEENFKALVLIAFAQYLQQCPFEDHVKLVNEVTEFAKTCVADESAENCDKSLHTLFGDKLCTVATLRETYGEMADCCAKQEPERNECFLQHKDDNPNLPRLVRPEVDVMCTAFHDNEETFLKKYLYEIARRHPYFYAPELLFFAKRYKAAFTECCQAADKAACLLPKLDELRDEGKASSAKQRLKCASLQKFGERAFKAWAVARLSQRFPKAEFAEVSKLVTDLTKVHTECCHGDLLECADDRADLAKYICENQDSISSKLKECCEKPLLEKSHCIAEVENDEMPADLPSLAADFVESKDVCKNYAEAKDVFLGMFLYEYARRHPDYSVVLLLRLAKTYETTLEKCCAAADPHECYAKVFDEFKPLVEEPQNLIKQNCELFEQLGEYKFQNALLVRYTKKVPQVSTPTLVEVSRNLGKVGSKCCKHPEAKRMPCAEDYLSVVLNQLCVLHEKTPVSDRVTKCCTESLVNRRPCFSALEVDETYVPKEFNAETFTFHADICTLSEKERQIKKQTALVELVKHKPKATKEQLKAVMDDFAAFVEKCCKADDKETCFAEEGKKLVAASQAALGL
Procedure: The percentage of compound bound to human serum albumin was measured using a chromatographic method as described. Briefly, each compound was assayed on an immobilized HSA column and gradient retention times measured, with chromatographic peak detection by UV. Each retention time was then converted to a % HSA bound value using a calibration set of compounds with a known % HSA binding.

[9] = tested on: HepG2 cells; assay: HepG2 cytotoxicity; assay type: cell-based; settings: Homo sapiens; toxicity against HepG2 cells
[10] = aqueous medium (not further specified)

Cc1ccc(N2C(=O)c3[nH]nc(CC(C)C)c3C2c2ccc(Cl)cc2F)cn1 (centres unmarked) [BUCMD00627]
CC50 at 72 h [1]: 10 µM
L. donovani amastigotes EC75 (μM, B10R cells) [2]: >10 µM

Cc1ccc(N2C(=O)c3[nH]nc(CC(C)C)c3C2c2ccccc2C)cn1 (centres unmarked) [BUCMD00628]
CC50 at 72 h [1]: 15.8 µM
L. donovani amastigotes EC75 (μM, B10R cells) [2]: 3.2 µM

Cc1ccc(N2C(=O)c3[nH]nc(CC(C)C)c3C2c2ccccc2Cl)cn1 (centres unmarked) [BUCMD00640]
CC50 at 72 h [1]: 12.6 µM
L. donovani amastigotes EC75 (μM, B10R cells) [2]: 3.4 µM

Cc1ccc(N2C(=O)c3[nH]nc(CC(C)C)c3C2c2ccc(Br)cc2F)cn1 (centres unmarked) [BUCMD00641]
CC50 at 72 h [1]: 12.6 µM
L. donovani amastigotes EC75 (μM, B10R cells) [2]: >10 µM

Cc1ccc(N2C(=O)c3[nH]nc(CC(C)C)c3C2c2ccc(F)cc2Cl)cn1 (centres unmarked) [BUCMD00642]
CC50 at 72 h [1]: 10 µM
L. donovani amastigotes EC75 (μM, B10R cells) [2]: 1.3 µM

COc1ccc(N2C(=O)c3[nH]nc(CC(C)C)c3C2c2ccccc2C)nc1 (centres unmarked) [BUCMD00645]
CC50 at 72 h [1]: 20 µM
L. donovani amastigotes EC75 (μM, B10R cells) [2]: >10 µM

COc1ccc(N2C(=O)c3[nH]nc(CC(C)C)c3C2c2ccc(F)cc2C)nc1 (centres unmarked) [BUCMD00646]
CC50 at 72 h [1]: 12.6 µM
L. donovani amastigotes EC75 (μM, B10R cells) [2]: >10 µM

COc1ccc(N2C(=O)c3[nH]nc(CC(C)C)c3C2c2ccccc2Cl)nc1 (centres unmarked) [BUCMD00647]
CC50 at 72 h [1]: 10 µM
L. donovani amastigotes EC75 (μM, B10R cells) [2]: >10 µM

COc1ccc(N2C(=O)c3[nH]nc(CC(C)C)c3C2c2ccc(Br)cc2F)nc1 (centres unmarked) [BUCMD00648]
CC50 at 72 h [1]: 3.98 µM
L. donovani amastigotes EC75 (μM, B10R cells) [2]: >10 µM

CC(C)Cc1n[nH]c2c1C(c1ccccc1C(F)(F)F)N(c1cncc(F)c1)C2=O (centres unmarked) [BUCMD00699]
CC50 at 72 h [1]: 5.01 µM
L. donovani amastigotes EC75 (μM, B10R cells) [2]: 1.4 µM

CC(C)Cc1n[nH]c2c1C(c1ccccc1F)N(c1cncc(F)c1)C2=O (centres unmarked) [BUCMD00700]
CC50 at 72 h [1]: 10 µM
L. donovani amastigotes EC75 (μM, B10R cells) [2]: 1.3 µM

CC(C)Cc1n[nH]c2c1C(c1ccc(F)cc1Cl)N(c1ccc(C(=O)N3CCCC3)cc1)C2=O (centres unmarked) [BUCMD00711]
CC50 at 72 h [1]: 5.01 µM
L. donovani amastigotes EC75 (μM, B10R cells) [2]: >10 µM

CC(C)Cc1n[nH]c2c1C(c1ccc(Cl)cc1Cl)N(c1ccc(C(=O)N3CCCC3)cc1)C2=O (centres unmarked) [BUCMD00712]
CC50 at 72 h [1]: 1.58 µM
L. donovani amastigotes EC75 (μM, B10R cells) [2]: >10 µM

Cc1ccccc1C1c2c(CC(C)C)n[nH]c2C(=O)N1c1ccc(C(=O)N2CCCC2)cc1 (centres unmarked) [BUCMD00713]
CC50 at 72 h [1]: 10 µM
L. donovani amastigotes EC75 (μM, B10R cells) [2]: >10 µM

CC(C)Cc1n[nH]c2c1C(c1ccc(F)cc1F)N(c1ccc(C(=O)N3CCCC3)cc1)C2=O (centres unmarked) [BUCMD00714]
CC50 at 72 h [1]: 10 µM
L. donovani amastigotes EC75 (μM, B10R cells) [2]: >10 µM

Cc1cc(F)ccc1C1c2c(CC(C)C)n[nH]c2C(=O)N1c1ccc(N2CCN(C)CC2)nc1 (centres unmarked) [BUCMD00717]
CC50 at 72 h [1]: 7.94 µM
L. donovani amastigotes EC75 (μM, B10R cells) [2]: 1.0 µM

COc1ccc(N2C(=O)c3[nH]nc(CC(C)C)c3C2c2ccc(F)cc2)cc1F (centres unmarked) [Compound 42, 5-(3-fluoro-4-methoxyphenyl)-4-(4-fluorophenyl)-3-isobutyl-4,5-dihydropyrrolo[3,4-c]pyrazol-6(2H)-one]
IC50 [3]: 1.3 µM
EC50 [3]: 1.3 µM
Papp at 3 h [4]: 29 ×10⁻⁶ cm/s
solubility ([5]; aqueous medium): 39 µM (≈ 15.5 µg/mL)
PFI [6]: 8.6
EC50 [7]: 25.1 µM
HSA Binding [8]: 96.9%
IC50 [2]: 0.6 µM
EC50 [9]: 50.1 µM

CC(C)Cc1n[nH]c2c1C(c1ccc(F)cc1)N(c1ccc3c(c1)OCO3)C2=O (centres unmarked) [Compound 44, 5-(benzo[d][1,3]dioxol-5-yl)-4-(4-fluorophenyl)-3-isobutyl-4,5-dihydropyrrolo[3,4-c]pyrazol-6(1H)-one]
IC50 [3]: 0.6 µM
EC50 [3]: 0.6 µM
Papp at 3 h [4]: 39 ×10⁻⁶ cm/s
solubility ([5]; aqueous medium): 63 µM (≈ 24.8 µg/mL)
PFI [6]: 8.4
EC50 [7]: 25.1 µM
HSA Binding [8]: 96.2%
IC50 [2]: 0.3 µM
EC50 [9]: 63.1 µM

CC(C)Cc1n[nH]c2c1C(c1ccc(F)cc1)N(c1ccc3c(c1)OCCO3)C2=O (centres unmarked) [Compound 45]
IC50 [3]: 3.2 µM
EC50 [3]: 3.2 µM
Papp at 3 h [4]: 51 ×10⁻⁶ cm/s
solubility ([5]; aqueous medium): 50 µM (≈ 20.4 µg/mL)
PFI [6]: 8.4
EC50 [7]: 25.1 µM
HSA Binding [8]: 96.2%
IC50 [2]: 0.9 µM
EC50 [9]: > 50 µM

COc1ccc(N2C(=O)c3[nH]nc(CC(C)C)c3C2c2ccccc2Cl)cc1 (centres unmarked) [Compound 55, 4-(2-chlorophenyl)-3-isobutyl-5-(4-methoxyphenyl)-4,5-dihydropyrrolo[3,4-c]pyrazol-6(1H)-one]
IC50 [3]: 1.3 µM
EC50 [3]: 1.3 µM
Papp at 3 h [4]: 33 ×10⁻⁶ cm/s
solubility [5, 10]: 30 µM (≈ 11.9 µg/mL)
PFI [6]: 8.8
EC50 [7]: 20 µM
HSA Binding [8]: 97.8%
IC50 [2]: 0.2 µM
EC50 [9]: 31.6 µM

COc1ccc(N2C(=O)c3[nH]nc(CC(C)C)c3C2c2ccsc2)cc1 (centres unmarked) [Compound S3]
IC50 [3]: 6.3 µM
EC50 [3]: 6.3 µM
Papp at 3 h [4]: 47 ×10⁻⁶ cm/s
solubility [5, 10]: 149 µM (≈ 54.8 µg/mL)
PFI [6]: 8.3
EC50 [7]: > 50 µM
HSA Binding [8]: 95.4%
IC50 [2]: 4 µM
EC50 [9]: > 100 µM

COc1ccc(N2C(=O)c3[nH]nc(CC(C)C)c3C2c2ccc(F)cn2)cc1 (centres unmarked) [Compound S10]
IC50 [3]: 10 µM
EC50 [3]: 10 µM
Papp at 3 h [4]: 49 ×10⁻⁶ cm/s
solubility [5, 10]: ≥ 343 µM
PFI [6]: 7.7
EC50 [7]: > 50 µM
HSA Binding [8]: 90.2%
IC50 [2]: 3.4 µM
EC50 [9]: > 100 µM
